Reference: patent US20230031406A1, “COMPOUNDS AND COMPOSITIONS FOR TREATING CONDITIONS ASSOCIATED WITH NLRP ACTIVITY” (Novartis AG, priority 2018, published 2023)

System: PMA-differentiated THP-1 cells
Experiment: IL-1β production in PMA-differentiated THP-1 cells stimulated with gramicidin (hTHP-1 assay containing 2% fetal bovine serum; Procedures 1 and 2)
Assay type: cell-based, human
Settings: Homo sapiens, THP-1, Table B2; 2% fetal bovine serum; class symbols; read-out: hTHP-1 IC50
Method in brief: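 Human monocytic THP-1 cells, matured overnight with PMA at 20 ng/ml, are seeded in low-serum (2% FBS) RPMI. Test compounds, at final concentrations from 100 down to 0.0017 μM, precede gramicidin (5 μM, 2 h) by one hour. Released IL-1β is then determined by HTRF.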

First: Cc1nc2c(c(NC(=O)N=S(N)(=O)c3ncc(C(C)(C)O)s3)c1C1CC1)CCC2 (single isomer, unassigned) [Compound 618b, (R) or (S)-N′-((3-cyclopropyl-2-methyl-6,7-dihydro-5H-cyclopenta[b]pyridin-4-yl)carbamoyl)-5-(2-hydroxypropan-2-yl)thiazole-2-sulfonimidamide]
Second: Cc1nc2c(c(NC(=O)N=S(N)(=O)c3cc(C(C)(C)O)cs3)c1C(C)C)CCC2 (single isomer, unassigned) [Compound 622b, (R) or (S)-4-(2-Hydroxypropan-2-yl)-N′-((3-isopropyl-2-methyl-6,7-dihydro-5H-cyclopenta[b]pyridin-4-yl)carbamoyl) thiophene-2-sulfonimidamide]
The IC50 of the first is lower: 0.2 to 1 µM for the first, 5 to 30 µM for the second.

CC(C)(O)c1ccnc(S(N)(=O)=NC(=O)Nc2c3c(nc4c2CCC4(C)C)CCC3)c1 (single isomer, unassigned) [Compound 620b, (R) or (S)-N′-((3,3-dimethyl-1,2,3,5,6,7-hexahydrodicyclopenta [b,e]pyridin-8-yl)carbamoyl)-4-(2-hydroxypropan-2-yl)pyridine-2-sulfonimidamide] and CC(C)(O)c1cccc(S(N)(=O)=NC(=O)Nc2c3c(nc4c2CCC4)CCC3)c1 (single isomer, unassigned) [Compound 625b, (R) or (S)-N′-((1,2,3,5,6,7-hexahydrodicyclopenta [b,e]pyridin-8-yl)carbamoyl)-3-(2-hydroxypropan-2-yl)benzene-sulfonimidamide] fall in the same range of IC50: 1 to 5 µM for the first, 1 to 5 µM for the second.

In the case of Cc1c(C(F)(F)F)nc2c(c1NC(=O)N=S(N)(=O)c1ccn(C(C)C)n1)CCC2 (single isomer, unassigned) [Compound 628b, (R) or (S)-1-Isopropyl-N′-((3-methyl-2-(trifluoromethyl)-6,7-dihydro-5H-cyclopenta[b]pyridin-4-yl)carbamoyl)-1H-pyrazole-3-sulfonimidamide], the IC50 is reported as 0.2 to 1 µM.

Same assay, conditions: Homo sapiens, THP-1, Table B2; 2% fetal bovine serum; numeric bounds; read-out: hTHP-1 IC50

Cc1nc2c(c(NC(=O)N=S(N)(=O)c3ncc(C(C)(C)O)s3)c1C1CC1)CCC2 (single isomer, unassigned) [Compound 618a, (S) or (R)-N′-((3-cyclopropyl-2-methyl-6,7-dihydro-5H-cyclopenta[b]pyridin-4-yl)carbamoyl)-5-(2-hydroxypropan-2-yl)thiazole-2-sulfonimidamide] and CC(C)(O)c1ccnc(S(N)(=O)=NC(=O)Nc2c3c(nc4c2CCC4(C)C)CCC3)c1 (single isomer, unassigned) [Compound 620a, (S) or (R)-N′-((3,3-dimethyl-1,2,3,5,6,7-hexahydrodicyclopenta [b,e]pyridin-8-yl)carbamoyl)-4-(2-hydroxypropan-2-yl)pyridine-2-sulfonimidamide] cannot be ordered by IC50: over 30 µM for the first, over 30 µM for the second.

CC(C)(O)c1cccc(S(N)(=O)=NC(=O)Nc2c3c(nc4c2CCC4)CCC3)c1 (single isomer, unassigned) [Compound 625a, (S) or (R)-N′-((1,2,3,5,6,7-hexahydrodicyclopenta [b,e]pyridin-8-yl)carbamoyl)-3-(2-hydroxypropan-2-yl)benzene-sulfonimidamide] and CC(C)(O)c1ccc(S(N)(=O)=NC(=O)Nc2c3c(nc4c2CCC4)CCC3)cc1 (single isomer, unassigned) [Compound 633a, (S) or (R)-N′-((1,2,3,5,6,7-hexahydrodicyclopenta [b,e]pyridin-8-yl)carbamoyl)-4-(2-hydroxypropan-2-yl)benzene-sulfonimidamide] cannot be ordered by IC50: over 30 µM for the first, over 30 µM for the second.

Cc1c(C(F)(F)F)nc2c(c1NC(=O)N=S(N)(=O)c1ccn(C(C)C)n1)CCC2 (single isomer, unassigned) [Compound 628a, (S) or (R)-1-Isopropyl-N′-((3-methyl-2-(trifluoromethyl)-6,7-dihydro-5H-cyclopenta[b]pyridin-4-yl)carbamoyl)-1H-pyrazole-3-sulfonimidamide] was tested, and the IC50 was over 30 µM.

Same assay, conditions: Table B2; 2% fetal bovine serum; class symbols; read-out: hTHP-1 IC50

Compared with Cc1c(C(F)(F)F)nc2c(c1NC(=O)N=S(N)(=O)c1ccn(C(F)F)n1)CCC2 (single isomer, unassigned) [Compound 621a, (S) or (R)-1-(Difluoromethyl)-N′-((3-methyl-2-(trifluoromethyl)-6,7-dihydro-5H-cyclopenta[b]pyridin-4-yl)carbamoyl)-1H-pyrazole-3-sulfonimidamide], Cc1c(C(F)(F)F)nc2c(c1NC(=O)N=S(N)(=O)c1cc(C(C)(C)O)cs1)CCC2 (single isomer, unassigned) [Compound 624a, (S) or (R)-4-(2-Hydroxypropan-2-yl)-N′-((3-methyl-2-(trifluoromethyl)-6,7-dihydro-5H-cyclopenta[b]pyridin-4-yl)carbamoyl) thiophene-2-sulfonimidamide] is lower in IC50: 5 to 30 µM for the first, 1 to 5 µM for the second. The second is the more potent here.

Compared with Cc1c(C(F)(F)F)nc2c(c1NC(=O)N=S(N)(=O)c1ccn(C(F)F)n1)CCC2 (single isomer, unassigned) [Compound 621b, (R) or (S)-1-(Difluoromethyl)-N′-((3-methyl-2-(trifluoromethyl)-6,7-dihydro-5H-cyclopenta[b]pyridin-4-yl)carbamoyl)-1H-pyrazole-3-sulfonimidamide], Cc1c(C(F)(F)F)nc2c(c1NC(=O)N=S(N)(=O)c1cc(C(C)(C)O)cs1)CCC2 (single isomer, unassigned) [Compound 624b, (R) or (S)-4-(2-Hydroxypropan-2-yl)-N′-((3-methyl-2-(trifluoromethyl)-6,7-dihydro-5H-cyclopenta[b]pyridin-4-yl)carbamoyl) thiophene-2-sulfonimidamide] is lower in IC50: 1 to 5 µM for the first, 0.04 to 0.2 µM for the second. The second is the more potent here.

First: Cc1nc2c(c(NC(=O)N=S(N)(=O)c3cc(C(C)(C)O)cs3)c1C(C)C)CCC2 (single isomer, unassigned) [Compound 622a, (S) or (R)-4-(2-Hydroxypropan-2-yl)-N′-((3-isopropyl-2-methyl-6,7-dihydro-5H-cyclopenta[b]pyridin-4-yl)carbamoyl) thiophene-2-sulfonimidamide]
Second: Cc1nc2c(c(NC(=O)N=S(N)(=O)c3cc(C(C)(C)O)cs3)c1C1CC1)CCC2 (single isomer, unassigned) [Compound 623a, (R) or (S)-N′-((3-cyclopropyl-2-methyl-6,7-dihydro-5H-cyclopenta[b]pyridin-4-yl)carbamoyl)-4-(2-hydroxypropan-2-yl)thiophene-2-sulfonimidamide]
The IC50 of the first is higher: 5 to 30 µM for the first, 0.04 to 0.2 µM for the second. The second is the more potent here.

Cc1nc2c(c(NC(=O)N=S(N)(=O)c3cc(C(C)(C)O)cs3)c1C1CC1)CCC2 (single isomer, unassigned) [Compound 623b, (S) or (R)-N′-((3-cyclopropyl-2-methyl-6,7-dihydro-5H-cyclopenta[b]pyridin-4-yl)carbamoyl)-4-(2-hydroxypropan-2-yl)thiophene-2-sulfonimidamide] and CCc1nc2c(c(NC(=O)N=S(N)(=O)c3sc(C(C)(C)O)cc3F)c1C1CC1)CCC2 (single isomer, unassigned) [Compound 631a, (S) or (R)-N′-((3-cyclopropyl-2-ethyl-6,7-dihydro-5H-cyclopenta[b]pyridin-4-yl)carbamoyl)-3-fluoro-5-(2-hydroxypropan-2-yl)thiophene-2-sulfonimidamide] fall in the same range of IC50: 5 to 30 µM for the first, 5 to 30 µM for the second.

Cc1c(C2CC2)nc2c(c1NC(=O)N=S(N)(=O)c1nc(C(C)(C)O)cs1)CCC2 (single isomer, unassigned) [Compound 626a] and CCc1nc2c(c(NC(=O)N=S(N)(=O)c3cnc(C(C)(C)O)s3)c1C1CC1)CCC2 (single isomer, unassigned) [Compound 630a, (S) or (R)-N′-((3-cyclopropyl-2-ethyl-6,7-dihydro-5H-cyclopenta[b]pyridin-4-yl)carbamoyl)-2-(2-hydroxypropan-2-yl)thiazole-5-sulfonimidamide] fall in the same range of IC50: 5 to 30 µM for the first, 5 to 30 µM for the second.

Compared with Cc1c(C2CC2)nc2c(c1NC(=O)N=S(N)(=O)c1nc(C(C)(C)O)cs1)CCC2 (single isomer, unassigned) [Compound 626b, (R) or (S)-N′-((2-cyclopropyl-3-methyl-6,7-dihydro-5H-cyclopenta[b]pyridin-4-yl)carbamoyl)-4-(2-hydroxypropan-2-yl)thiazole-2-sulfonimidamide], CCc1nc2c(c(NC(=O)N=S(N)(=O)c3cnc(C(C)(C)O)s3)c1C1CC1)CCC2 (single isomer, unassigned) [Compound 630b, (R) or (S)-N′-((3-cyclopropyl-2-ethyl-6,7-dihydro-5H-cyclopenta[b]pyridin-4-yl)carbamoyl)-2-(2-hydroxypropan-2-yl)thiazole-5-sulfonimidamide] is higher in IC50: 0.04 to 0.2 µM for the first, 0.2 to 1 µM for the second. The first is the more potent here.

CCc1nc2c(c(NC(=O)N=S(N)(=O)c3sc(C(C)(C)O)cc3F)c1C1CC1)CCC2 (single isomer, unassigned) [Compound 631b, (R) or (S)-N′-((3-cyclopropyl-2-ethyl-6,7-dihydro-5H-cyclopenta[b]pyridin-4-yl)carbamoyl)-3-fluoro-5-(2-hydroxypropan-2-yl)thiophene-2-sulfonimidamide] and Cc1c(C(F)(F)F)nc2c(c1NC(=O)N=S(N)(=O)c1sc(C(C)(C)O)cc1F)CCC2 (single isomer, unassigned) [Compound 632a, (R) or (S)-3-Fluoro-5-(2-hydroxypropan-2-yl)-N′-((3-methyl-2-(trifluoromethyl)-6,7-dihydro-5H-cyclopenta[b]pyridin-4-yl)carbamoyl) thiophene-2-sulfonimidamide] fall in the same range of IC50: 0.04 to 0.2 µM for the first, 0.04 to 0.2 µM for the second.

Cc1c(C(F)(F)F)nc2c(c1NC(=O)N=S(N)(=O)c1sc(C(C)(C)O)cc1F)CCC2 (single isomer, unassigned) [Compound 632b, (S) or (R)-3-Fluoro-5-(2-hydroxypropan-2-yl)-N′-((3-methyl-2-(trifluoromethyl)-6,7-dihydro-5H-cyclopenta[b]pyridin-4-yl)carbamoyl) thiophene-2-sulfonimidamide] was tested, and the IC50 was 5 to 30 µM.
